In brackets after ≈: the same amount, converted by molar mass.
Legend:
[1] = tested on: lung cancer cell line (A-549); assay: Preliminary cytotoxicity screening against lung cancer cell line A-549 (SRB assay); type: cell-based, human; settings: for IC50: Homo sapiens, A549, 50% reduction in absorbance at 562 nm relative to untreated cells, Table 1 (esters VII, acids IX), read-out: ED50 (cytotoxicity against A-549); for IC50 / ED50 (cytotoxicity against A-549): A-549, SRB assay; for ED50 (cytotoxicity against A-549): 50% reduction in absorbance at 562 nm, Table 2 (tromethamine salts X)
Method: (§1) Compounds were assayed for in vitro cytotoxicity in a panel of human tumor cell lines at the School of Pharmacy, University of North Carolina at Chapel Hill, according to procedures described previously [Lee, K. H., Lin, Y. M., Wu, T. S., Zhang, D. C., Yamagishi, T., Hayashi, T., Hall, I. H., Chang, J. J., Wu, R. Y., Yang, T. H. The cytotoxic principles of Prunella vulgaris, Psychotria serpens, and Hyptis capitata: Ursolic acid and related derivatives. Planta Med. 1988, 54, 308-11; Boyd, M. R. Status of the National Cancer Institute preclinical antitumor drug discovery screen: implications for selection of new agents for clinical trial. Devita, V. T., Jr. Hellman, S., Rosenberg, S. A., Eds, J. B. Cancer: Principles and Practice of Oncology Update, 1989, 3: pp1-12, Lippincoft: Philadephia; Monks, A., Scudiero, D., Skehan, P., Shoemaker, R., Paull, K., Vistica, D., Hose, C., Langley, J., Cronise, P., Vaigro-Wolff, A., Gray-Goodrich, M., Campbell, H., Mayo, J., Boyd, M. Feasibility of a high-flux anticancer drug screen using a diverse panel of cultured human tumor cell lines. J. Natl. Cancer Inst. 1991, 83, 757-66.] The cell lines included human ovarian cancer (1A9), ileocecal carcinoma (HCT-8), lung carcinoma (A-549), glioblastoma (U-87-MG), bone (HOS), epidermoid carcinoma of the naynx (KB), P-gp-expressing epidermoid carcinoma of the nasopharynx (KB-VIN), and melanoma (SKMEL-2) cell line. The cytotoxic effects of each compound were obtained as EC50 values, which represent the molar drug concentrations required to cause 50% inhibition.
Preliminary screening of antitumor activity was based on the cytotoxicity tested in human long cancer (A-549) cell lines. […] Among 3-carboxylic acid derivatives (IX), the cytotoxicity was not remarkable when the m-position of 2-phenyl group was substituted by OCH3 group (IX-3, 7, 11). ED50 values were greater than 20 μg/mL. […] The antitumor activity was not good, if there was no substitution on the m-position of 2-phenyl group ([…]).

[2] = tested on: ileocecal carcinoma (HCT-8) cell line; assay: Activity against HTCL replication, HCT-8; type: cell-based, human; settings: mean ED50
Method: as §1, with “The cell lines included human ovarian cancer (1A9), ileocecal carcinoma (HCT-8), lung carcinoma (A-549), glioblastoma (U-87-MG), bone (HOS), epidermoid carcinoma of the naynx (KB), P-gp-expressing epidermoid carcinoma of the nasopharynx (KB-VIN), and melanoma (SKMEL-2) cell line. The cytotoxic effects of each compound were obtained as EC50 values, which represent the molar drug concentrations required to cause 50% inhibition.” left out

[3] = tested on: melanoma (SK-MEL-2) cell line; assay: Activity against HTCL replication, SK-MEL-2; type: cell-based, human; settings: mean ED50
Method: as §1, with “The cell lines included human ovarian cancer (1A9), ileocecal carcinoma (HCT-8), lung carcinoma (A-549), glioblastoma (U-87-MG), bone (HOS), epidermoid carcinoma of the naynx (KB), P-gp-expressing epidermoid carcinoma of the nasopharynx (KB-VIN), and melanoma (SKMEL-2) cell line. The cytotoxic effects of each compound were obtained as EC50 values, which represent the molar drug concentrations required to cause 50% inhibition.” left out

[4] = tested on: bone (HOS) cell line; assay: Activity against HTCL replication, HOS; type: cell-based, human; settings: mean ED50
Method: as §1, with “The cell lines included human ovarian cancer (1A9), ileocecal carcinoma (HCT-8), lung carcinoma (A-549), glioblastoma (U-87-MG), bone (HOS), epidermoid carcinoma of the naynx (KB), P-gp-expressing epidermoid carcinoma of the nasopharynx (KB-VIN), and melanoma (SKMEL-2) cell line. The cytotoxic effects of each compound were obtained as EC50 values, which represent the molar drug concentrations required to cause 50% inhibition.” left out

[5] = tested on: human ovarian cancer (IA9) cell line; assay: Activity against HTCL replication, IA9; type: cell-based; settings: ovarian cancer IA9; mean ED50
Method: as §1
Antitumor activity of compounds IX-8 and X-8 was further tested on the following 8 cancer cell lines: CAKI, HOS, KB, KB-VIN, SK-MEL-2, U87-MG, HCT-8 and IA9. […] It is worth mentioning that these two compounds were quite active against human ovarian cancer cells (IA9), which were known to have a high level of drug resistant P-glycoprotein. IC50 of compound IX-8 against these cancer cells is only 0.03 μg/mL. Thus, this compound is really worth developing, particular against drug resistant ovarian cancer.

[6] = tested on: glioblastoma (U87-MG) cell line; assay: Activity against HTCL replication, U87-MG; type: cell-based, human; settings: mean ED50
Method: as §1, with “The cell lines included human ovarian cancer (1A9), ileocecal carcinoma (HCT-8), lung carcinoma (A-549), glioblastoma (U-87-MG), bone (HOS), epidermoid carcinoma of the naynx (KB), P-gp-expressing epidermoid carcinoma of the nasopharynx (KB-VIN), and melanoma (SKMEL-2) cell line. The cytotoxic effects of each compound were obtained as EC50 values, which represent the molar drug concentrations required to cause 50% inhibition.” left out

| melting point | Molecule | IC50 [1] [µg/mL] | ED50 (cytotoxicity against A-549) [1] [µg/mL] | other results |
| --- | --- | --- | --- | --- |
| 231 °C | COc1cccc(-c2[nH]c3ccc(F)cc3c(=O)c2C(=O)O)c1 [IX-3, 6-Fluoro-3′-methoxy-2-phenyl-4-quinolone-3-carboxylic acid] | > 20 | – | – |
| 243 °C (dec.) | COc1cccc(-c2[nH]c3ccc(Cl)cc3c(=O)c2C(=O)O)c1 [IX-7, 3′-Methoxy-6-chloro-2-phenyl-4-quinolone-3-carboxylic acid] | > 20 | – | – |
| – | CCOC(=O)c1c(-c2cccc(F)c2)[nH]c2ccc(Cl)cc2c1=O [VII-5, Ethyl 3′-fluoro-6-chloro-2-phenyl-4-quinolone-3-carboxylate] | > 20 | – | – |
| – | CCOC(=O)c1c(-c2cccc(OC)c2)[nH]c2ccc(Cl)cc2c1=O [VII-7, Ethyl 3′-methoxy-6-chloro-2-phenyl-4-quinolone-3-carboxylate] | > 20 | – | – |
| – | NC(CO)(CO)CO.O=C(O)c1c(-c2cccc(Cl)c2)[nH]c2ccc(Cl)cc2c1=O [Compound X-6, 3′,6-Dichloro-2-phenyl-4-quinolone-3-carboxylic acid tromethamine salt] | – | >20 | – |
| – | COc1ccc2[nH]c(-c3cccc(F)c3)c(C(=O)O)c(=O)c2c1.NC(CO)(CO)CO [Compound X-8, 3′-Fluoro-6-methoxy-2-phenyl-4-quinolone-3-carboxylic acid tromethamine salt] | – | 2.4 | ED50 HCT-8 [2]: 1.20 µg/mL; ED50 SK-MEL-2 [3]: 2.0 µg/mL; ED50 HOS [4]: 5.0 µg/mL; ED50 IA9 [5]: 0.88 µg/mL; ED50 U87-MG [6]: 5.0 µg/mL |
| > 300 °C | O=C(O)c1c(-c2cccc(F)c2)[nH]c2ccc(Cl)cc2c1=O [IX-5, 3′-Fluoro-6-chloro-2-phenyl-4-quinolone-3-carboxylic acid] | 1.8 (≈ 5.67 µM) | – | – |
| 267.5 to 269.2 °C (dec.) | O=C(O)C1C(=O)c2cc3c(cc2N=C1c1ccccc1)OCO3 (centres unmarked) [IX-22, 6,7-Methylenedioxy-2-phenyl-4-quinolone-3-carboxylic acid] | – | – | – |
| – | O=C(O)c1c(-c2cccc(Cl)c2)[nH]c2ccc(F)cc2c1=O [IX-1, 3′-Chloro-6-fluoro-2-phenyl-4-quinolone-3-carboxylic acid] | 20 (≈ 63 µM) | – | – |
| – | COc1cccc(-c2[nH]c3ccc(Cl)cc3c(=O)c2C(=O)O)c1.NC(CO)(CO)CO [Compound X-7, 3′-Methoxy-6-chloro-2-phenyl-4-quinolone-3-carboxylic acid tromethamine salt] | – | >20 | – |
| > 300 °C | COc1ccc2c(c1)C(=O)C(C(=O)O)C(c1ccccc1)=N2 (centres unmarked) [IX-11, 6-Methoxy-2-phenyl-4-quinolone-3-carboxylic acid] | > 20 | – | cytotoxicity / antitumor activity in words ([1]; A-549, preliminary screening): not good |
| 254.2 to 255.6 °C (dec.) | O=C(O)C1C(=O)c2cc(Cl)ccc2N=C1c1ccccc1 (centres unmarked) [IX-15, 6-Chloro-2-phenyl-4-quinolone-3-carboxylic acid] | – | – | – |
| – | CCOC(=O)c1c(-c2cccc(Cl)c2)[nH]c2ccc(OC)cc2c1=O [VII-9, Ethyl 3′-chloro-6-methoxy-2-phenyl-4-quinolone-3-carboxylate] | > 20 | – | – |
| – | CCOC(=O)c1c(-c2cccc(OC)c2)[nH]c2ccc(OC)cc2c1=O [VII-10, Ethyl 3′,6-dimethoxy-2-phenyl-4-quinolone-3-carboxylate] | > 20 | – | – |
| 272 °C (dec.) | O=C(O)c1c(-c2cccc(F)c2)[nH]c2ccc(F)cc2c1=O [IX-2, 3′,6-Difluoro-2-phenyl-4-quinolone-3-carboxylic acid] | 0.5 (≈ 1.66 µM) | – | – |
| – | NC(CO)(CO)CO.O=C(O)c1c(-c2cccc(F)c2)[nH]c2ccc(Cl)cc2c1=O [Compound X-5, 3′-Fluoro-6-chloro-2-phenyl-4-quinolone-3-carboxylic acid tromethamine salt] | – | 10.9 | – |
| 223 °C (dec.) | COc1ccc2[nH]c(-c3cccc(Cl)c3)c(C(=O)O)c(=O)c2c1 [IX-9, 3′-Chloro-6-methoxy-2-phenyl-4-quinolone-3-carboxylic acid] | 20 (≈ 60.7 µM) | – | – |
| – | NC(CO)(CO)CO.O=C(O)c1c(-c2cccc(F)c2)[nH]c2ccc(F)cc2c1=O [Compound X-2, 3′,6-Difluoro-2-phenyl-4-quinolone-3-carboxylic acid tromethamine salt] | – | 4.3 | – |
| > 300 °C | COc1cccc(-c2[nH]c3ccc(OC)cc3c(=O)c2C(=O)O)c1 [IX-10, 3′,6-Dimethoxy-2-phenyl-4-quinolone-3-carboxylic acid] | > 20 | – | – |
| 260 °C (dec.) | O=C(O)c1c(-c2cccc(Cl)c2)[nH]c2ccc(Cl)cc2c1=O [IX-6, 3′,6-Dichloro-2-phenyl-4-quinolone-3-carboxylic acid] | > 20 | – | – |
| – | NC(CO)(CO)CO.O=C(O)c1c(-c2cccc(Cl)c2)[nH]c2ccc(F)cc2c1=O [Compound X-1, 3′-Chloro-6-fluoro-2-phenyl-4-quinolone-3-carboxylic acid tromethamine salt] | – | 17.6 | – |
| 297 °C | O=C(O)C1C(=O)c2cc(F)ccc2N=C1c1ccccc1 (centres unmarked) [IX-4, 6-Fluoro-2-phenyl-4-quinolone-3-carboxylic acid] | – | – | – |
| – | 6-Methoxy-2-phenyl-4-quinolone-3-carboxylic acid tromethamine salt [Compound X-11] | – | >20 | – |
| – | COc1ccc2[nH]c(-c3cccc(Cl)c3)c(C(=O)O)c(=O)c2c1.NC(CO)(CO)CO [Compound X-9, 3′-Chloro-6-methoxy-2-phenyl-4-quinolone-3-carboxylic acid tromethamine salt] | – | 17.6 | – |

Source: US6897316B2, “Substituted 2-phenyl-4-quinolone-3-carboxylic acid compounds and their use as antitumor agents” (China Medical University, priority 2003, dated 2005)
